ChEMBL document CHEMBL1149011, “Pulcherralpin, a new diterpene ester from Caesalpinia pulcherrima” (J Nat Prod, 1986)
The source made the active and inactive calls. No cut-off for these calls is given here.

Key:
KB = assay: Cytotoxicity against human KB cells; assay type: functional, cell-based
P388 = assay: Cytotoxicity against mouse P388 cells; assay type: functional, cell-based

## COC(=O)C[C@@H]1C(=O)C[C@H]2[C@H]([C@H]1C)[C@@H](O)[C@@H](OC(=O)/C=C/c1ccccc1)[C@@]1(O)C(C)(C)CCC[C@]21C
KB
  Activity: inactive
P388
  Activity: inactive
